The structures appear in SMILES notation.

For orientation: inhibition means the change of the read-out against control, counted positive when it falls.

This assay deals with T1, human wild-type (WT)-pendrin (Homo sapiens, UniProt O43511).
T1 construct: expressed in transfected cells
T1 sequence (O43511 1-780): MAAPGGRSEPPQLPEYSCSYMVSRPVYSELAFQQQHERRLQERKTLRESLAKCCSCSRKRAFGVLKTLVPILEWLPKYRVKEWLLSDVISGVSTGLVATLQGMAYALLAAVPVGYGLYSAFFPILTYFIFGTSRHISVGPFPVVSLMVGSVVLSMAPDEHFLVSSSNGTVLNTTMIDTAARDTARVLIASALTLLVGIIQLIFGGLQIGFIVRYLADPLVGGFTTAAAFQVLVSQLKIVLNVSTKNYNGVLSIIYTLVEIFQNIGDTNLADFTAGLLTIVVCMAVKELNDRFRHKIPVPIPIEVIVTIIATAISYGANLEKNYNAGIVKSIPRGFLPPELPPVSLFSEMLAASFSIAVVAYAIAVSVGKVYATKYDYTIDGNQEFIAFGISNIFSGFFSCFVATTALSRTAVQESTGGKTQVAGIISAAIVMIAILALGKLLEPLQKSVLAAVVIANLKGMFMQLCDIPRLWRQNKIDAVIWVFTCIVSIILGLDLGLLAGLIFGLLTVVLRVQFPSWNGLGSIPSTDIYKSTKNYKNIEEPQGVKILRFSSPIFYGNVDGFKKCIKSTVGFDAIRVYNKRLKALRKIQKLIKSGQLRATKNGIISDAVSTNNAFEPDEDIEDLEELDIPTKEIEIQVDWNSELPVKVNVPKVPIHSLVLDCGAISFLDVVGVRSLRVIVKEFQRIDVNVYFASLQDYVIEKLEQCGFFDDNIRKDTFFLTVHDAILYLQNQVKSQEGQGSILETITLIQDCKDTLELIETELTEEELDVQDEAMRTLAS
Description: Pendrin Cl−/I− exchange inhibitory activity, YFP fluorescence in CHO-K1 cells. The conditions noted are these: CHO-K1; for inhibition at 1 µM: compound concentration 1 μM; for inhibition at 3 µM: compound concentration 3 μM; for inhibition at 10 µM: compound concentration 10 μM; for inhibition at 30 µM: compound concentration 30 μM; for inhibition at 100 µM: compound concentration 100 μM. Format: cell-based. The protocol: Chinese hamster ovary (CHO)-K1 cells were cultured in DMEM medium containing 10% fetal bovine serum (FBS), 100 units/ml of penicillin and 100 μg/ml streptomycin. CHO-K1 cells were stably transfected with pcDNA3.1 encoding the halide sensor YFP-H148Q/I152L/F46L and human wild-type (WT)-pendrin.
(§1) CHO-K1 cells expressing human WT pendrin and YFP-F46L/H148Q/I152L were plated in 96-well microplates at a density of 2×10^4 cells per well, and cultured for 48 hours. Each well of the cell cultured 96-well plate was washed 2 times with 200 μL of PBS, and filled with 50 μL of HEPES buffered solution (140 mM NaCl, 5 mM KCl, 1 mM MgCl2, 1 mM CaCl2), 10 mM glucose and 10 mM HEPES (pH 7.4)). Test compounds (1 μL) were added to a final concentration of 1, 3, 10, 30 and 100 μM. After culturing at 37° C. for 10 minutes, the 96-well plate was located on the FLUOstar Omega Microplate Reader (BMG Labtech, Ortenberg, Germany) for a fluorescence assay. Fluorescence was recorded continuously (400 ms per point) for 1 second (baseline), whereby each well was assayed individually for pendrin-mediated I-influx. Then 50 μL of Na-substituted HEPES buffered solution (replacing NaCl with NaI) was added using a liquid injector at 1 second, and YFP fluorescence was recorded for 5 seconds. The initial iodide influx rate was determined from the initial slope of fluorescence by nonlinear regression, after the injection of iodide.
as §1, with “Chinese hamster ovary (CHO)-K1 cells were cultured in DMEM medium containing 10% fetal bovine serum (FBS), 100 units/ml of penicillin and 100 μg/ml streptomycin. CHO-K1 cells were stably transfected with pcDNA3.1 encoding the halide sensor YFP-H148Q/I152L/F46L and human wild-type (WT)-pendrin. 3-2: Assay of Cl^−/I^− exchange activity CHO-K1” for “CHO-K1”, “50” for “1, 3, 10, 30 and 100”, “Then,” for “Then”, “NaI-substituted” for “Na-substituted”

The compound `O=C(O)c1ccc(N2CCN(C(=O)Cc3c(C(=O)O)[nH]c4ccc(Cl)cc34)CC2)cc1` [YPI-A4919, 3-(2-(4-(4-Carboxyphenyl)piperazin-1-yl)-2-oxoethyl)-5-chloro-1H-indole-2-carboxylic acid] came in with an inhibition at 1 µM below 20%, an inhibition at 3 µM below 20%, an inhibition at 10 µM below 20% and an inhibition at 30 µM below 20%. In addition, the inhibition at 100 µM was below 20%.

In turn, `CC(C)(C)c1ccc(N2CCN(C(=O)Cc3c(C(=O)O)[nH]c4ccc(F)cc34)CC2)cc1` [YPI-A4965, 3-(2-(4-(4-(Tert-butyl)phenyl)piperazin-1-yl)-2-oxoethyl)-5-fluoro-1H-indole-2-carboxylic acid] displayed an inhibition at 1 µM below 20%, an inhibition at 3 µM below 20%, an inhibition at 10 µM below 20% and an inhibition at 30 µM of 62.7%.

On to `O=C(O)c1[nH]c2ccc(Cl)cc2c1CC(=O)N1CCN(c2cccc(Br)c2)CC1` [YPI-A4845, 3-(2-(4-(3-Bromophenyl)piperazin-1-yl)-2-oxoethyl)-5-chloro-1H-indole-2-carboxylic acid], for which the inhibition at 1 µM is below 20%, the inhibition at 3 µM is below 20%, 10 µM produced 35.1% inhibition and the inhibition at 30 µM came to 88.8%.

`CC1CN(C(=O)Cc2c(C(=O)O)[nH]c3ccc(Cl)cc23)CCN1c1ccccc1` (centres unmarked) [YPI-A4883, 5-Chloro-3-(2-(3-methyl-4-phenylpiperazin-1-yl)-2-oxoethyl)-1H-indole-2-carboxylic acid]: the inhibition at 1 µM is below 20%, the inhibition at 3 µM is below 20%, the inhibition at 10 µM is below 20% and the inhibition at 30 µM is below 20%. The compound also displayed an inhibition at 100 µM below 20%.

Regarding `Cc1cccc(Cl)c1N1CCN(C(=O)Cc2c(C(=O)O)[nH]c3ccc(Cl)cc23)CC1` [YPI-A4880, 5-Chloro-3-(2-(4-(2-chloro-6-methylphenyl)piperazin-1-yl)-2-oxoethyl)-1H-indole-2-carboxylic acid], at 1 µM the inhibition was 42.8%, the inhibition at 3 µM was 75.2%, 10 µM produced 97.6% inhibition and the inhibition at 30 µM was 98.1%. The compound further registered an inhibition at 100 µM of 98.4%.

As to `CCOc1ccc(N2CCN(C(=O)Cc3c(C(=O)O)[nH]c4ccc(Cl)cc34)CC2)cc1` [YPI-A4921, 5-Chloro-3-(2-(4-(4-ethoxyphenyl)piperazin-1-yl)-2-oxoethyl)-1H-indole-2-carboxylic acid], the inhibition at 1 µM is below 20%, the inhibition at 3 µM is below 20%, the inhibition at 10 µM was below 20% and 30 µM produced 72.5% inhibition. This compound also showed an inhibition at 100 µM of 73.8%.

In turn, `O=C(O)c1[nH]c2ccc(Cl)cc2c1CC(=O)N1CCN(c2ccc(-c3ccccc3)cc2)CC1` [YPI-A4966, 3-(2-(4-([1,1′-biphenyl]-4-yl)piperazin-1-yl)-2-oxoethyl)-5-chloro-1H-indole-2-carboxylic acid] gave an inhibition at 1 µM below 20%, an inhibition at 3 µM below 20%, an inhibition at 10 µM below 20% and an inhibition at 30 µM below 20%. In addition, the inhibition at 100 µM is below 20%.

`O=C(O)c1[nH]c2ccc(Cl)cc2c1CC(=O)N1CCN(c2ccccc2C(F)(F)F)CC1` [YPI-A4781, 5-Chloro-3-(2-oxo-2-(4-(2-(trifluoromethyl)phenyl)piperazin-1-yl)ethyl)-1H-indole-2-carboxylic acid]: the inhibition at 1 µM was below 20%, 3 µM produced 21.5% inhibition, the inhibition at 10 µM came out at 71.4% and testing at 30 µM gave an inhibition of 93.8%. The compound further came in with an inhibition at 100 µM of 95.6%.

Compound `O=C(O)c1[nH]c2ccc(Cl)cc2c1CC(=O)N1CCN(c2cc(Cl)c(Cl)c(Cl)c2)CC1` [YPI-A4916, 5-Chloro-3-(2-oxo-2-(4-(3,4,5-trichlorophenyl)piperazin-1-yl)ethyl)-1H-indole-2-carboxylic acid] gave an inhibition at 1 µM below 20%, an inhibition at 3 µM of 45.7%, an inhibition at 10 µM of 82.6% and an inhibition at 30 µM of 90.9%. In addition, at 100 µM the inhibition was 91.4%.

As for `Cc1cccc(Cl)c1N1CCN(C(=O)Cc2c(C(=O)O)[nH]c3ccc(F)cc23)CC1` [YPI-A4963, 3-(2-(4-(2-Chloro-6-methylphenyl)piperazin-1-yl)-2-oxoethyl)-5-fluoro-1H-indole-2-carboxylic acid], the inhibition at 1 µM was below 20%, the inhibition at 3 µM was 52.3%, the inhibition at 10 µM was found to be 89.6% and testing at 30 µM gave an inhibition of 100%.

For the compound `CC(=O)c1ccc(N2CCN(C(=O)Cc3c(C(=O)O)[nH]c4ccc(Cl)cc34)CC2)cc1` [YPI-A4920, 3-(2-(4-(4-Acetylphenyl)piperazin-1-yl)-2-oxoethyl)-5-chloro-1H-indole-2-carboxylic acid], the inhibition at 1 µM was below 20%, the inhibition at 3 µM was below 20%, the inhibition at 10 µM is below 20% and the inhibition at 30 µM was below 20%. The same compound registered an inhibition at 100 µM below 20%.

With `Cc1c(Cl)cccc1N1CCN(C(=O)Cc2c(C(=O)O)[nH]c3ccc(Cl)cc23)CC1` [YPI-A4918, 5-Chloro-3-(2-(4-(3-chloro-2-methylphenyl)piperazin-1-yl)-2-oxoethyl)-1H-indole-2-carboxylic acid], the inhibition at 1 µM is below 20%, the inhibition at 3 µM was 34.7%, the inhibition at 10 µM turned out to be 87.5% and the inhibition at 30 µM was determined as 94.8%. Moreover, the inhibition at 100 µM worked out at 95.6%.

In turn, `COc1ccc(N2CCN(C(=O)Cc3c(C(=O)O)[nH]c4ccc(Cl)cc34)CC2)cc1` [YPI-A4878, 5-Chloro-3-(2-(4-(4-methoxyphenyl)piperazin-1-yl)-2-oxoethyl)-1H-indole-2-carboxylic acid] displayed an inhibition at 1 µM below 20%, an inhibition at 3 µM below 20%, an inhibition at 10 µM below 20% and an inhibition at 30 µM below 20%. The inhibition at 100 µM came out at 79.4%.
